# pEC50: −log10 of the molar value.
# Biological target: T1, human GPR119 (Homo sapiens, UniProt Q8TDV5)
# T1 construct: expressed in transfected cells
# T1 sequence (Q8TDV5 1-335): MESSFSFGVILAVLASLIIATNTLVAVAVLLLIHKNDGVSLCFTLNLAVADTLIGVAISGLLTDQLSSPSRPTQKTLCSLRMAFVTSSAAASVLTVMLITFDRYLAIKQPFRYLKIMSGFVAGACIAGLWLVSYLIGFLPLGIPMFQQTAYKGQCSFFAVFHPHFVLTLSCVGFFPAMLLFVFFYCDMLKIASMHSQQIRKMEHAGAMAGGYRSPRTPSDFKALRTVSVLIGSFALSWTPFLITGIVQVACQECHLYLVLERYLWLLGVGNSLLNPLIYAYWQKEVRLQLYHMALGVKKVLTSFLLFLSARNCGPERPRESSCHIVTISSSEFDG
# Test: Functional cellular assay measuring GPR119-mediated cAMP release (HTRF) in HEK-293 cells stably expressing recombinant GPR119
# Type: cell-based
# Details: cell line expressing human GPR119, 30 minutes at room temperature
# Description: Functional Cellular Assays Measuring GPR119-mediated cAMP Release
# Compounds of the present disclosure, which are agonists of GPR119, were characterized by functional assays measuring the cAMP response of HEK-293 cell lines stably expressing recombinant GPR119 from man, mouse or rat, or by using the hamster cell line HIT-T15 expressing GPR119 endogenously. The cAMP content was determined using a kit based on homogenous time-resolved fluorescence (HTRF) from Cisbio Corp. (cat. no. 62AM4PEC). For preparation, cells were split into T175 culture flasks and grown to near confluency in medium (DMEM/10% FCS for HEK-293 cells, and F-12K medium/10% horse serum/2.5% FCS for HIT-T15 cells, respectively). Medium was then removed and cells washed with PBS lacking calcium and magnesium ions, followed by proteinase treatment with accutase (Sigma-Aldrich, cat. no. A6964). Detached cells were washed and resuspended in assay buffer (1×HBSS; 20 mM HEPES, 0.1% BSA, 2 mM IBMX) and cellular density determined. They were then diluted to 400000 cells/mL and 25 μL-aliquots dispensed to the wells of 96-well plates. For measurement, 25 μL of test compound in assay buffer was added and incubated for 30 minutes at room temperature. After addition of HTRF reagents diluted in lysis buffer, the plates were incubated for 1 hour, followed by measuring the fluorescence ratio at 665 vs. 620 nm. Potency of the agonists was quantified by determining the concentrations that caused 50% of the maximal response/activation (EC50). See Table 6 for exemplary data obtained using the cell line expressing human GPR119.
row,SMILES,pEC50
1,C[S+]([O-])C1CN(c2ncc(N3CC[C@@H](Oc4ccc(Oc5ccc(F)cc5)nc4)C3=O)cn2)C1 (stereo partly shown) [Compound 1-14],5.68
2,C[S+]([O-])C1CN(c2ncc(N3CC[C@@H](Oc4ccc(OCC(F)(F)F)nc4)C3=O)cn2)C1 (stereo partly shown) [Compound 1-15],6.61
3,CS(=O)(=O)C1CN(c2ncc(N3CC[C@@H](Oc4ccc(OCC(F)(F)F)nc4)C3=O)cn2)C1 [Compound 1-16],7.24
4,CS(=O)(=O)C1CN(c2ncc(N3CC[C@@H](Oc4ccc(C(=O)C5CC5)cc4)C3=O)cn2)C1 [Compound 1-17],6.91
5,CS(=O)(=O)C1CN(c2ncc(N3CC[C@@H](Oc4ccc(Oc5ccc(F)cc5)nc4)C3=O)cn2)C1 [Compound 1-18],6.46
6,CN(C)C(=O)C1CN(c2ncc(N3CC(C)(C)C(Oc4ccc(OCC(F)(F)F)cc4)C3=O)cn2)C1 (stereo not shown) [Compound 1-19],6.74
7,O=C1[C@H](Oc2ccc(OCC(F)(F)F)nc2)CCN1c1cnc(N2CC(O)C2)nc1 [Compound 1-22],6.06
8,CN(C)C(=O)C1CN(c2ncc(N3CC[C@@H](Oc4ccc(Oc5ccc(F)cc5)nc4)C3=O)cn2)C1 [Compound 1-23],6.72
9,O=C1[C@H](Oc2ccc(OCC(F)(F)F)nc2)CCN1c1cnc(N2CC3(CCNC3=O)C2)nc1 [Compound 1-26],6.35
10,CS(=O)(=O)C1CN(c2ncc(N3CC[C@H](Oc4ccc(C(=O)C5CC5)cc4)C3=O)cn2)C1 [Compound 1-27],5.66
11,CN1CCC2(CN(c3ncc(N4CC[C@@H](Oc5ccc(OCC(F)(F)F)nc5)C4=O)cn3)C2)C1=O [Compound 1-28],6.54
12,CC(C)SC1CN(c2ncc(N3CC[C@@H](Oc4ccc(OCC(F)(F)F)nc4)C3=O)cn2)C1 [Compound 1-29],7.80
13,COC(=O)CC1CN(c2ncc(N3CC[C@@H](Oc4ccc(OCC(F)(F)F)nc4)C3=O)cn2)C1 [Compound 1-30],6.48
14,CN(C)C(=O)C1CN(c2ncc(N3CC[C@@H](Oc4ccc(OCC(F)(F)F)nc4)C3=O)cn2)C1 [Compound 1-31],6.89
15,CS(=O)(=O)C1CN(c2ncc(N3CCC(Cc4ccc(C(=O)C5CC5)cc4)C3=O)cn2)C1 (stereo not shown) [Compound 1-32],6.71
16,CS(=O)(=O)C1CN(c2ncc(N3CC[C@@H](Oc4ccc(C(=O)C5CC5)nc4)C3=O)cn2)C1 [Compound 1-33],6.18
17,O=C1[C@H](Oc2ccc(OCC(F)(F)F)nc2)CCN1c1cnc(N2CC(N3CCCC3=O)C2)nc1 [Compound 1-34],6.43
18,CC(C)S(=O)(=O)C1CN(c2ncc(N3CC[C@@H](Oc4ccc(OCC(F)(F)F)nc4)C3=O)cn2)C1 [Compound 1-37],7.15
19,NC1CN(c2ncc(N3CC[C@@H](Oc4ccc(OCC(F)(F)F)nc4)C3=O)cn2)C1 [Compound 1-38],5.01
20,CS(=O)(=O)C1CN(c2ncc(N3CC[C@@H](Oc4ccc(C(=O)C5CC5)c(F)c4)C3=O)cn2)C1 [Compound 1-39],6.75

row,SMILES,pEC50
1,C[S+]([O-])C1CN(c2ncc(N3CC[C@@H](Oc4ccc(C(=O)C5CC5)c(F)c4)C3=O)cn2)C1 (stereo partly shown) [Compound 1-40],5.74
2,CC(C)[S+]([O-])C1CN(c2ncc(N3CC[C@@H](Oc4ccc(C(=O)C5CC5)c(F)c4)C3=O)cn2)C1 (stereo partly shown) [Compound 1-41],6.66
3,CN(C)C(=O)C1CN(c2ncc(N3CC(C)(C)C(Oc4ccc(C(=O)C5CC5)cc4)C3=O)cn2)C1 (stereo not shown) [Compound 1-48],6.12
4,CN(C)C(=O)C1CN(c2ncc(N3CC(C)(C)C(Oc4ccc(C(=O)C5CC5)nc4)C3=O)cn2)C1 (stereo not shown) [Compound 1-49],5.87
5,CS(=O)(=O)C1CN(c2ncc(N3CC[C@H](Oc4ccc(OCC(F)(F)F)nc4)C3=O)cn2)C1 [Compound 1-50],6.49
6,CC(C)[S+]([O-])C1CN(c2ncc(N3CC[C@@H](Oc4ccc(OCC(F)(F)F)nc4)C3=O)cn2)C1 (stereo partly shown) [Compound 1-51],7.03
7,COC(=O)C1CN(c2ccc(N3CC[C@@H](Oc4ccc(OCC(F)(F)F)nc4)C3=O)cn2)C1 [Compound 1-52],7.92
8,CN(C)C(=O)C1CN(c2ncc(N3CC[C@@H](Oc4ccc(OCC(F)(F)F)cc4)C3=O)cn2)C1 [Compound 1-53],6.45
9,CN(C)C(=O)CC1CN(c2ncc(N3CC[C@@H](Oc4ccc(OCC(F)(F)F)nc4)C3=O)cn2)C1 [Compound 1-54],5.78
10,CN(C)C(=O)C1CN(c2ncc(N3CC[C@@H](Oc4ccc(C(=O)C5CC5)cc4)C3=O)cn2)C1 [Compound 2-01],6.66
11,CN(C)C(=O)C1CN(c2ncc(N3CC[C@@H](Oc4ccc(C(=O)c5ccc(F)cc5)cc4)C3=O)cn2)C1 [Compound 2-02],6.86
12,CN(C)C(=O)C1CN(c2ncc(N3CC[C@@H](Oc4ccc(-c5nccs5)cc4)C3=O)cn2)C1 [Compound 2-03],6.49
13,CN(C)C(=O)C1CN(c2ncc(N3CC[C@@H](Oc4ccc(C(=O)C5CC5)nc4)C3=O)cn2)C1 [Compound 2-04],6.03
14,Cc1cnc(-c2ccc(O[C@@H]3CCN(c4cnc(N5CC(C(=O)N(C)C)C5)nc4)C3=O)cn2)s1 [Compound 2-05],6.94
15,CN(C)C(=O)C1CN(c2ncc(N3CC[C@@H](Oc4ccc(C(=O)c5ccc(F)cc5)nc4)C3=O)cn2)C1 [Compound 2-06],6.84
16,CN(C)C(=O)C1CN(c2ncc(N3CC[C@@H](Oc4ccc(C(=O)C5CC5)c(F)c4)C3=O)cn2)C1 [Compound 2-07],6.89
17,CN(C)C(=O)C1CN(c2ncc(N3CC[C@@H](Oc4ccc(C(=O)C5CC(F)(F)C5)cc4)C3=O)cn2)C1 [Compound 2-08],6.65
18,CN(C)C(=O)C1CN(c2ncc(N3CC[C@@H](Oc4ccc(C(=O)CCC(F)(F)F)cc4)C3=O)cn2)C1 [Compound 2-09],6.91
19,CN(C)C(=O)C1CN(c2ncc(N3CC[C@@H](Oc4ccc(C(=O)C5CC5(F)F)cc4)C3=O)cn2)C1 (stereo partly shown) [Compound 2-10],6.67
20,CN(C)C(=O)C1CN(c2ncc(N3CC[C@@H](Oc4ccc(C(=O)C5CC(F)(F)C5)nc4)C3=O)cn2)C1 [Compound 2-11],6.33

# Further lines, results first:
row,pEC50,SMILES
1,5.31,O=C(O)C1CN(c2ncc(N3CC[C@@H](Oc4ccc(OCC5CC5)nc4)C3=O)cn2)C1 [Compound 3-01]
2,6.41,O=C(O)C1CN(c2ccc(N3CC[C@@H](Oc4ccc(OCC(F)(F)F)nc4)C3=O)cn2)C1 [Compound 3-02]
3,5.22,O=C(O)C1CN(c2ccc(N3CC[C@@H](Oc4ccc(OCC5CC5)nc4)C3=O)cn2)C1 [Compound 3-03]
4,5.04,O=C(O)C1CN(c2ncc(N3CC[C@@H](Oc4ccc(OCC(F)(F)F)nc4)C3=O)cn2)C1 [Compound 3-04]
5,5.69,CNC(=O)C1CN(c2ncc(N3CC[C@@H](Oc4ccc(Oc5ccc(F)cc5)nc4)C3=O)cn2)C1 [Compound 4-01]
6,5.17,NC(=O)CNC(=O)C1CN(c2ncc(N3CC[C@@H](Oc4ccc(Oc5ccc(F)cc5)nc4)C3=O)cn2)C1 [Compound 4-02]
7,5.39,CCNC(=O)C1CN(c2ncc(N3CC[C@@H](Oc4ccc(Oc5ccc(F)cc5)nc4)C3=O)cn2)C1 [Compound 4-03]
8,5.23,NC(=O)C1CN(c2ncc(N3CC[C@@H](Oc4ccc(Oc5ccc(F)cc5)nc4)C3=O)cn2)C1 [Compound 4-04]
9,5.77,CC(C)NC(=O)C1CN(c2ncc(N3CC[C@@H](Oc4ccc(Oc5ccc(F)cc5)nc4)C3=O)cn2)C1 [Compound 4-05]
10,6.18,O=C(C1CN(c2ncc(N3CC[C@@H](Oc4ccc(Oc5ccc(F)cc5)nc4)C3=O)cn2)C1)N1CCC(O)CC1 [Compound 4-06]
11,6.55,CCN(CC)C(=O)C1CN(c2ncc(N3CC[C@@H](Oc4ccc(Oc5ccc(F)cc5)nc4)C3=O)cn2)C1 [Compound 4-07]
12,5.89,CC(=O)N1CCN(C(=O)C2CN(c3ncc(N4CC[C@@H](Oc5ccc(Oc6ccc(F)cc6)nc5)C4=O)cn3)C2)CC1 [Compound 4-08]
13,5.82,O=C(NC1CC1)C1CN(c2ncc(N3CC[C@@H](Oc4ccc(Oc5ccc(F)cc5)nc4)C3=O)cn2)C1 [Compound 4-09]
14,6.36,O=C(C1CN(c2ncc(N3CC[C@@H](Oc4ccc(Oc5ccc(F)cc5)nc4)C3=O)cn2)C1)N1CCCC1 [Compound 4-10]
15,6.04,O=C(C1CN(c2ncc(N3CC[C@@H](Oc4ccc(Oc5ccc(F)cc5)nc4)C3=O)cn2)C1)N1CC(O)C1 [Compound 4-11]
16,5.24,O=C(NCCO)C1CN(c2ncc(N3CC[C@@H](Oc4ccc(Oc5ccc(F)cc5)nc4)C3=O)cn2)C1 [Compound 4-12]
17,6.61,CCNC(=O)C1CN(c2ncc(N3CC[C@@H](Oc4ccc(OCC(F)(F)F)nc4)C3=O)cn2)C1 [Compound 4-13]
18,7.08,CCN(CC)C(=O)C1CN(c2ncc(N3CC[C@@H](Oc4ccc(OCC(F)(F)F)nc4)C3=O)cn2)C1 [Compound 4-14]
